In brackets after ≈: the same amount, converted by molar mass.
How the values were obtained:
S. aureus (LORSA) = assay: In vitro antibacterial activity, MIC90 against S. aureus (LORSA); type: cell-based; settings: Staphylococcus aureus
Source text: (§1) The in vitro antibacterial activity of the compounds of the present invention may be assessed by following procedures recommended in (1) National Committee for Clinical Laboratory Standards (January 2003), Methods for dilution antimicrobial tests for bacteria that grow aerobically, Approved Standard (6th ed), M7-A6, NCCLS, Wayne, Pa.; (2) National Committee for Clinical Laboratory Standards (March 2001), Methods for antimicrobial susceptibility testing of anaerobic bacteria, Approved Standard (5th ed), M11-A4, NCCLS, Wayne, Pa.; (3) National Committee for Clinical Laboratory Standards (Jan. 2003), MIC testing supplemental tables, M100-S13 (for use with M7-A6), NCCLS, Wayne, Pa.; and (4) Murray P R, Baron E J, Jorgensen J H, et al. Manual of Clinical Microbiology (8th ed) Washington, D.C.: American Society for Microbiology Press, 2003. The antibacterial activity can be presented in the form of MIC value. The MIC value is the lowest concentration of drug which prevented macroscopically visible growth under the conditions of the test.

MAO-A = target: T1, MAO-A (Homo sapiens, UniProt P21397); assay: Monoamine oxidase A inhibition (conversion of MAO substrate to dihydropyridinium metabolite); type: biochemical; settings: substrate at Km 64 μM; MAO-A 0.01 mg/mL
T1 sequence (P21397 1-527): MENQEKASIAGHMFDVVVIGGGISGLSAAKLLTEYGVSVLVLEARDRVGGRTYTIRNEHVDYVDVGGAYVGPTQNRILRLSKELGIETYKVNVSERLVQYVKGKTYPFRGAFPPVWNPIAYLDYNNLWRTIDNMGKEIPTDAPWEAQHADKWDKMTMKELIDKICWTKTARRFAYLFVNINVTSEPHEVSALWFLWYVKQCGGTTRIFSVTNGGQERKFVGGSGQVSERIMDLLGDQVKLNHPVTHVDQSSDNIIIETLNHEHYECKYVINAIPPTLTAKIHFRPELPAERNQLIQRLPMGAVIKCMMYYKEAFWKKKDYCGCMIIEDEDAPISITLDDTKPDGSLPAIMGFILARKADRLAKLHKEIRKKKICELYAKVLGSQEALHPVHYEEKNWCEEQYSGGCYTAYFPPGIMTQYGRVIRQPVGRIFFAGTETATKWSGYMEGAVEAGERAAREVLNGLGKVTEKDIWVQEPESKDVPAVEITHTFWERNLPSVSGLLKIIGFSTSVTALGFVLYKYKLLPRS
Protocol: (§2) Following procedure may assess monoamine oxidase inhibition activity of the compounds of the present invention:
(§3) MAO-A and B inhibition were analyzed by measuring the inhibition of conversion of an MAO substrate, 1-methyl-4-(1-methyl-2-pyrryl)-1,2,3,6-tetrahydropyridine, to its dihydropyridinium metabolite (λ=421 nm). The substrate concentration was equal to the Km (64 μM for MAO-A and 43 μM for MAO-B). The MAO-A concentration was 0.01 mg/mL, and the MAO-B concentration was 0.008 mg/mL. Each inhibitor was tested at seven concentrations. Percent inhibition at each concentration was established relative to the uninhibited control rate, and the IC50 and Ki values were calculated.

E. faecium (VREF) = assay: In vitro antibacterial activity, MIC90 against E. faecium (VREF); type: cell-based; settings: Enterococcus faecium
Source text: as §1

MAO-B = target: T2, MAO-B (Homo sapiens, UniProt P27338); assay: Monoamine oxidase B inhibition (conversion of MAO substrate to dihydropyridinium metabolite); type: biochemical; settings: substrate at Km 43 μM; MAO-B 0.008 mg/mL
T2 sequence (P27338 1-520): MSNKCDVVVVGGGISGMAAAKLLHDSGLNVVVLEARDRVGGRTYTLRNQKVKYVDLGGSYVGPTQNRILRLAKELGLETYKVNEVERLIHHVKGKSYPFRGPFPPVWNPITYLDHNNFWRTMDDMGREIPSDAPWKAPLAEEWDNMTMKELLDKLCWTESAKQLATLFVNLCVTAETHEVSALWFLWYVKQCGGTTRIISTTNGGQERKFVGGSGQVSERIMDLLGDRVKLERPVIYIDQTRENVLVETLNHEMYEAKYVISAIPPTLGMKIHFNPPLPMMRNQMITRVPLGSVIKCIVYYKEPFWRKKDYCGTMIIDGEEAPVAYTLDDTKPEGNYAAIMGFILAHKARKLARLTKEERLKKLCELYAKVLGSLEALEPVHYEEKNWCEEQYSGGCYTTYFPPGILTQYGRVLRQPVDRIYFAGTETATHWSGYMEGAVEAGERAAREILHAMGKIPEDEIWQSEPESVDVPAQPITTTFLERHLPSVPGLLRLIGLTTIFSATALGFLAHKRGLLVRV
Protocol: as §2, §3

E. faecalis (VREF) = assay: In vitro antibacterial activity, MIC90 against E. faecalis (VREF); type: cell-based; settings: Enterococcus faecalis
Source text: as §1

S. pneumoniae (LRSA) = assay: In vitro antibacterial activity, MIC90 against S. pneumoniae (LRSA); type: cell-based; settings: Streptococcus pneumoniae
Source text: as §1

E. faecalis MGH-2 EF 1-1 = assay: In vitro antibacterial activity against E. faecalis MGH-2 EF 1-1; type: cell-based; settings: Enterococcus faecalis, MGH2EF11; strain MGH-2 EF 1-1
Source text: as §1

S. pneumoniae SV1 SP-3 = assay: In vitro antibacterial activity against S. pneumoniae SV1 SP-3; type: cell-based; settings: Streptococcus pneumoniae, SV1SP3; strain SV1 SP-3
Source text: as §1

S. aureus UC-76 SA-1 = assay: In vitro antibacterial activity against S. aureus UC-76 SA-1; type: cell-based; settings: Staphylococcus aureus, UC76; strain UC-76 SA-1
Source text: as §1

MIC90 (S. aureus (LORSA))	Ki (MAO-A)	MIC90 (E. faecium (VREF))	Ki (MAO-B)	MIC90 (E. faecalis (VREF))	MIC90 (S. pneumoniae (LRSA))	MIC90 (E. faecalis MGH-2 EF 1-1)	MIC90 (S. pneumoniae SV1 SP-3)	MIC90 (S. aureus UC-76 SA-1)	Structure (SMILES)
4 µg/mL (≈ 11.9 µM)	722 µM	4 µg/mL (≈ 11.9 µM)	52.6 µM	4 µg/mL (≈ 11.9 µM)	4 µg/mL (≈ 11.9 µM)	–	–	–	COC(=O)NC[C@H]1CN(c2cc(F)c3c(c2)CC(=O)N3C)C(=O)O1 [Example 1, (5S)-[3-(7-fluoro-1-methyl-2-oxo-2,3-dihydro-1H-indol-5-yl)-2-oxo-oxazolidin-5-ylmethyl]-carbamic acid methyl ester]
–	–	–	–	–	–	8 µg/mL (≈ 21.9 µM)	4 µg/mL (≈ 10.9 µM)	8 µg/mL (≈ 21.9 µM)	CCCN1C(=O)Cc2cc(N3C[C@H](CNC(=O)OC)OC3=O)cc(F)c21 [Example 5, (S)-[3-(7-fluoro-2-oxo-1-propyl-2,3-dihydro-1H-indol-5-yl)-2-oxo-oxazolidin-5-ylmethyl]-carbamic acid methyl ester]
–	–	–	–	–	–	8 µg/mL (≈ 22 µM)	8 µg/mL (≈ 22 µM)	8 µg/mL (≈ 22 µM)	COC(=O)NC[C@H]1CN(c2cc(F)c3c(c2)CC(=O)N3C2CC2)C(=O)O1 [Example 6, (S)-[3-(1-cyclopropyl-7-fluoro-2-oxo-2,3-dihydro-1H-indol-5-yl)-2-oxo-oxazolidin-5-ylmethyl]-carbamic acid methyl ester]
–	–	–	–	–	–	2 µg/mL (≈ 5.42 µM)	4 µg/mL (≈ 10.8 µM)	4 µg/mL (≈ 10.8 µM)	COC(=O)NC[C@H]1CN(c2cc(F)c3c(c2)CC(=O)N3CCF)C(=O)O1 [Example 4, (S)-{3-[7-fluoro-1-(2-fluoro-ethyl)-2-oxo-2,3-dihydro-1H-indol-5-yl]-2-oxo-oxazolidin-5-ylmethyl}-carbamic acid methyl ester]
–	–	–	–	–	–	4 µg/mL (≈ 10.6 µM)	4 µg/mL (≈ 10.6 µM)	4 µg/mL (≈ 10.6 µM)	COC(=O)NC[C@H]1CN(c2cc(F)c3c(c2)CC(=O)N3CC2CC2)C(=O)O1 [Example 7, (S)-[3-(1-cyclopropylmethyl-7-fluoro-2-oxo-2,3-dihydro-1H-indol-5-yl)-2-oxo-oxazolidin-5-ylmethyl]-carbamic acid methyl ester]
–	–	–	–	–	–	2 µg/mL (≈ 5.69 µM)	4 µg/mL (≈ 11.4 µM)	4 µg/mL (≈ 11.4 µM)	CCN1C(=O)Cc2cc(N3C[C@H](CNC(=O)OC)OC3=O)cc(F)c21 [Example 3, (S)-[3-(1-ethyl-7-fluoro-2-oxo-2,3-dihydro-1H-indol-5-yl)-2-oxo-oxazolidin-5-ylmethyl]-carbamic acid methyl ester]
4 µg/mL (≈ 10.9 µM)	> 500 µM	2 µg/mL (≈ 5.47 µM)	3.17 µM	2 µg/mL (≈ 5.47 µM)	2 µg/mL (≈ 5.47 µM)	–	–	–	COC(=O)NC[C@H]1CN(c2cc(F)c3c(c2)CC(=O)N3C(C)C)C(=O)O1 [Example 2, (5S)-[3-(7-fluoro-1-isopropyl-2-oxo-2,3-dihydro-1H-indol-5-yl)-2-oxo-oxazolidin-5-ylmethyl]-carbamic acid methyl ester]

Source: patent US7435751B2, “7-Fluoro-1,3-dihydro-indol-2-one oxazolidinones as antibacterial agents” (priority 2005, dated 2008)
